Results from ChEMBL document CHEMBL1137369, “New orally active derivatives of artemisinin with high efficacy against multidrug-resistant malaria in mice” (J Med Chem, 2006).

Tests used:
[1] = Protection of Swiss mice (Mus musculus) infected with Plasmodium yoelii nigeriensis at 48 mg/kg, perorally for 4 days; format: functional; conditions: route oral
[2] = tested on: Plasmodium yoelii nigeriensis; assay: Antimalarial activity against multidrug-resistant Plasmodium yoelii nigeriensis infected Swiss mice (Mus musculus) at 48 mg/kg peroral dose over 4 days; format: functional; conditions: route oral
[3] = tested on: Plasmodium yoelii nigeriensis; assay: Antimalarial activity as cures against multidrug-resistant Plasmodium yoelii nigeriensis infected Swiss mice (Mus musculus) at 48 mg/kg peroral dose over 4 days; format: functional; conditions: route oral
[4] = tested on: Plasmodium yoelii nigeriensis; assay: Antimalarial activity against multidrug-resistant Plasmodium yoelii nigeriensis infected Swiss mice (Mus musculus) at 12 mg/kg peroral dose over 4 days; format: functional; conditions: route oral
[5] = Lipophilicity, Log P of the compound; format: physicochemical; conditions: octanol/water
[6] = tested on: Plasmodium yoelii nigeriensis; assay: Antimalarial activity against multidrug-resistant Plasmodium yoelii nigeriensis infected Swiss mice (Mus musculus) at 6 mg/kg peroral dose over 4 days; format: functional; conditions: route oral

`C[C@H]1[C@@H](OCc2ccc(-c3ccccc3)cc2)O[C@@H]2O[C@@]3(C)CC[C@H]4[C@H](C)CC[C@@H]1[C@@]24OO3` gave an Activity [1] of 100%, an Activity [2] of 100% and an Activity [3] of 100%. For the same compound, the Activity [4] was 100% and the logP [5] was 6.91.
In the case of `CCO[C@@H]1O[C@@H]2O[C@]3(C)CC[C@H]4[C@H](C)CC[C@@H]([C@H]1C)[C@@]24OO3` [ALPHA-ARTEETHER], the Activity [2] is reported as 100%, the Activity [3] is reported as 100% and the logP [5] is reported as 3.84.
`C[C@H]1[C@H](OCc2ccc(-c3ccccc3)cc2)O[C@@H]2O[C@@]3(C)CC[C@H]4[C@H](C)CC[C@@H]1[C@@]24OO3` showed an Activity [6] of 86.33%, an Activity [2] of 100% and an Activity [3] of 100%. It also gave an Activity [4] of 100% and a logP [5] of 6.91.
Work on `C[C@@H]1CC[C@H]2[C@@H](C)C(OCCC3c4ccccc4-c4ccccc43)O[C@@H]3C[C@@]4(C)CC[C@@H]1[C@]32OO4` (stereo not given in full) yielded an Activity [1] of 100%, an Activity [2] of 100% and an Activity [3] of 100%. The Activity [4] was 100% and the logP [5] was 7.1.
Work on `C[C@H]1[C@@H](OCCC23CC4CC(CC(C4)C2)C3)O[C@@H]2O[C@@]3(C)CC[C@H]4[C@H](C)CC[C@@H]1[C@@]24OO3` yielded an Activity [1] of 60%, an Activity [2] of 100% and an Activity [3] of 100%. It also gave a logP [5] of 6.29.
For `C[C@H]1[C@@H](OCC2c3ccccc3-c3ccccc32)O[C@@H]2C[C@@]3(C)CC[C@H]4[C@H](C)CC[C@@H]1[C@@]24OO3`, the Activity [6] was 92.95%, the Activity [2] was 100% and the Activity [3] was 100%. The Activity [4] was 100% and the logP [5] was 6.75.
With `C[C@H]1[C@H](OCCC2C3CC4CC(C3)CC2C4)O[C@@H]2O[C@@]3(C)CC[C@H]4[C@H](C)CC[C@@H]1[C@@]24OO3` (stereo not given in full) the Activity [2] was 100%, the Activity [3] was 100% and the Activity [4] was 100%. For the same compound, the logP [5] was 6.15.
Work on `C[C@H]1[C@@H](OCCC2C3CC4CC(C3)CC2C4)O[C@@H]2O[C@@]3(C)CC[C@H]4[C@H](C)CC[C@@H]1[C@@]24OO3` (stereo not given in full) yielded an Activity [1] of 100%, an Activity [2] of 100% and an Activity [3] of 100%. It also gave a logP [5] of 6.15.
`C[C@@H]1CC[C@H]2[C@@H](C)C(OC3C4CC5CC(C4)CC3C5)O[C@@H]3O[C@@]4(C)CC[C@@H]1[C@]32OO4` (stereo not given in full) showed an Activity [1] of 100%, an Activity [2] of 100% and an Activity [3] of 100%. The Activity [4] was 100% and the logP [5] was 5.51.
`C[C@H]1[C@@H](OCCOc2ccc(-c3ccccc3)cc2)O[C@@H]2C[C@@]3(C)CC[C@H]4[C@H](C)CC[C@@H]1[C@@]24OO3` gave an Activity [1] of 100%, an Activity [2] of 100% and an Activity [3] of 100%. It also gave an Activity [4] of 100% and a logP [5] of 6.85.
Compound `C[C@H]1[C@H](OCC2c3ccccc3-c3ccccc32)O[C@@H]2C[C@@]3(C)CC[C@H]4[C@H](C)CC[C@@H]1[C@@]24OO3` has an Activity [2] of 100%, an Activity [3] of 100% and an Activity [4] of 100%. It also gave a logP [5] of 6.75.
`C[C@H]1[C@@H](OCc2ccccc2-c2ccccc2)O[C@@H]2O[C@@]3(C)CC[C@H]4[C@H](C)CC[C@@H]1[C@@]24OO3` showed an Activity [1] of 100%, an Activity [2] of 100% and an Activity [3] of 100%. The Activity [4] was 100% and the logP [5] was 6.91.
In the case of `C[C@H]1[C@H](OCCOc2ccccc2-c2ccccc2)O[C@@H]2C[C@@]3(C)CC[C@H]4[C@H](C)CC[C@@H]1[C@@]24OO3`, the Activity [6] is reported as 64.44%, the Activity [2] is reported as 100% and the Activity [3] is reported as 100%. For the same compound, the Activity [4] was 100% and the logP [5] was 6.85.
`C[C@H]1[C@H](OCCOc2ccc(-c3ccccc3)cc2)O[C@@H]2C[C@@]3(C)CC[C@H]4[C@H](C)CC[C@@H]1[C@@]24OO3` gave an Activity [6] of 44.33%, an Activity [2] of 100% and an Activity [3] of 100%. It also gave an Activity [4] of 100% and a logP [5] of 6.85.
`CCO[C@H]1O[C@@H]2O[C@@]3(C)CC[C@H]4[C@H](C)CC[C@@H]([C@H]1C)[C@@]24OO3` [ARTEMOTIL] showed an Activity [2] of 100%, an Activity [3] of 100% and a logP [5] of 3.84.
For `C[C@H]1[C@H](OCCC23CC4CC(CC(C4)C2)C3)O[C@@H]2O[C@@]3(C)CC[C@H]4[C@H](C)CC[C@@H]1[C@@]24OO3`, the Activity [6] was 61.25%, the Activity [2] was 100% and the Activity [3] was 100%. The Activity [4] was 97.43% and the logP [5] was 6.29.
Work on `C[C@H]1[C@@H](OCCc2ccc(-c3ccccc3)cc2)O[C@@H]2O[C@@]3(C)CC[C@H]4[C@H](C)CC[C@@H]1[C@@]24OO3` yielded an Activity [1] of 100%, an Activity [2] of 100% and an Activity [3] of 100%. The Activity [4] was 100% and the logP [5] was 7.19.
For `C[C@H]1[C@@H](OCCOc2ccccc2-c2ccccc2)O[C@@H]2C[C@@]3(C)CC[C@H]4[C@H](C)CC[C@@H]1[C@@]24OO3`, the Activity [2] was 100%, the Activity [3] was 100% and the logP [5] was 6.85.
Work on `C[C@@H]1CC[C@H]2[C@@H](C)C(OCC34CC5CC(CC(C5)C3)C4)O[C@@H]3O[C@@]4(C)CC[C@@H]1[C@]32OO4` (stereo not given in full) yielded an Activity [1] of 100%, an Activity [2] of 100% and an Activity [3] of 100%. The Activity [4] was 100% and the logP [5] was 6.02.
